In patent US20050107447A1, “Novel lysophosphatidic acid receptor agonists and antagonists” (priority 2003, published 2005):
Entries after “also recorded” stand apart in the source; their conditions may differ.

How the values were obtained:
LPP1 (PAP2a) phosphatase = target: T1, LPP1 (PAP2a) phosphatase (Homo sapiens, UniProt O14494); assay: LPP inhibition, competition with 50 nM [32P]LPA; assay type: biochemical; details: 0.1, 1.0 and 10.0 mM vs 50 nM [32P]LPA
T1 sequence (O14494 1-284): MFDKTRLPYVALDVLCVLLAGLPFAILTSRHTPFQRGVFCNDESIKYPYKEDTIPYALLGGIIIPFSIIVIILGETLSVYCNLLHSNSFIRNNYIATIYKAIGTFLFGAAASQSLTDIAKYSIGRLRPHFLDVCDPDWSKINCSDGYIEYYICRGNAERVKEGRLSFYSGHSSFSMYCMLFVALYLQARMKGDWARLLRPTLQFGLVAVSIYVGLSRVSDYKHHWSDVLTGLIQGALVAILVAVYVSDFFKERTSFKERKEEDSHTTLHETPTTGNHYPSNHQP
Method: (§1) NOHPP was also tested for activity at the three cloned LPPs. Although the phosphonate head group eliminates the possibility of NOHPP acting as a substrate, it is possible that the compound could be a competitive inhibitor.

LPP2 (PAP2c) phosphatase = target: T2, LPP2 (PAP2c) phosphatase (Homo sapiens, UniProt O43688); assay: LPP inhibition, competition with 50 nM [32P]LPA; assay type: biochemical; details: 0.1, 1.0 and 10.0 mM vs 50 nM [32P]LPA
T2 sequence (O43688 1-288): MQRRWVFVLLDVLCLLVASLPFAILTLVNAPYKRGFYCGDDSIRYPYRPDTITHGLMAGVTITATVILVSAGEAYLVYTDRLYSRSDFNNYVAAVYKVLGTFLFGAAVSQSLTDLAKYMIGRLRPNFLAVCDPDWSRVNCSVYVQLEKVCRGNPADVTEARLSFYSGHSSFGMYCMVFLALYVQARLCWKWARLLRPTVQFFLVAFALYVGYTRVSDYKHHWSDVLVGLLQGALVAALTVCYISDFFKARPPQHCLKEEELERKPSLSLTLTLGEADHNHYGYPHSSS
Method: as §1

LPP3 (PAP2b) phosphatase = target: T3, LPP3 (PAP2b) phosphatase (Homo sapiens, UniProt O14495); assay: LPP inhibition, competition with 50 nM [32P]LPA; assay type: biochemical; details: for Rank order potency of LPP inhibition: LPP3 vs LPP1 vs LPP2
T3 sequence (O14495 1-311): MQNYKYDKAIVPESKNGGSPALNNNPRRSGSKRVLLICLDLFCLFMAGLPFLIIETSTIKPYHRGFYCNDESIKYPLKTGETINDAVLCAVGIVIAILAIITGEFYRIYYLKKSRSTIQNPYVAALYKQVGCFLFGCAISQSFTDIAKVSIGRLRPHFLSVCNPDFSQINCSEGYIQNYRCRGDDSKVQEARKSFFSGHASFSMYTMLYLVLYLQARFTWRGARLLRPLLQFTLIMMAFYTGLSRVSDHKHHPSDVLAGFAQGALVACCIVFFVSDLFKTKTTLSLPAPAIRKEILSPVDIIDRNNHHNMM
Method: as §1

LPA2 [1] = target: T4, LPA2 (Homo sapiens, UniProt Q9HBW0); assay: GTP[γ35S] binding, LPA2 transfected HEK293T cell membranes; assay type: biochemical; parameters: expressed in transfected cells; host or cells: HEK293T (transient, calcium phosphate)
Method: (§2) The appropriate receptor plasmid DNA (encoding mouse LPA1, human LPA2 or human LPA3) was mixed with equal amounts of expression plasmids (pcDNA3) encoding a mutated (C351F) rat Gi2a, cow β1, and γ2 proteins and these DNAs were used to transfect monolayers of HEK293T cells (where ‘T’ indicates expression of the SV-40 virus large T antigen) using the calcium phosphate precipitate method. After about 60 hours, cells were harvested, membranes were prepared, aliquoted and stored at −70° C. until use.
(§3) The GTP[35 γS] assay was performed as described by us previously. Membranes containing 5 ug of protein were incubated in 0.1 ml GTP-binding buffer (in mM: HEPES 50, NaCl 100, MgCl2 10, pH7.5) containing […], […], 0.1 nM GTP[35 γS] (1200 Ci/mmol), and indicated lipid(s) for 30 minutes at 30° C. Samples were analyzed for membrane-bound radionuclide using a Brandel Cell Harvester (Gaithersburg, Md.).
(§4) The X-intercept of the linear transformation is equal to the inverse log of the κ1.
(§5) Membranes prepared from these cells are used to measure GTPγ[^35S] binding as a function of test compound concentration. The resulting dose-response curves provide relative potency (EC50) and efficacy, (Emax) for the test compounds.

LPA3 [2] = target: T5, LPA3 (Homo sapiens, UniProt Q9UBY5); assay: GTP[γ35S] binding, LPA3 transfected HEK293T cell membranes; assay type: biochemical; parameters: expressed in transfected cells; host or cells: HEK293T (transient, calcium phosphate)
T5 sequence (Q9UBY5 1-353): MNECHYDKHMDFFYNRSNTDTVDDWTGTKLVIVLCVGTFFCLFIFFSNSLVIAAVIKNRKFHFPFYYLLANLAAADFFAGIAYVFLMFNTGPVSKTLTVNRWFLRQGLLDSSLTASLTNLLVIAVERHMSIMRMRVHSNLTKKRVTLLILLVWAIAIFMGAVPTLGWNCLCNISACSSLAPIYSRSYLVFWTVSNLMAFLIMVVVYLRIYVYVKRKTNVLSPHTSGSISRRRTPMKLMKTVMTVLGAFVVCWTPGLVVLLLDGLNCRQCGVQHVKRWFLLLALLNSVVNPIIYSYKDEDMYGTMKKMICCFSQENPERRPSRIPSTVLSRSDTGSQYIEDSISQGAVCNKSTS
Method: as §2, §3, §4, §5

LPA1 [3] = target: T6, LPA1 (Mus musculus, UniProt P61793); assay: GTP[γ35S] binding, LPA1 transfected HEK293T (or RH7777) cell membranes; assay type: biochemical; parameters: expressed in transfected cells; host or cells: HEK293T (transient, with G protein plasmids); some results from RH7777 rat hepatoma membranes transfected with LPA1 DNA only
Method: as §2, §3, §4, §5

human platelets = assay: Aggregation of human platelets; assay type: cell-based; details: concentrations up to 10 micromolar
MDA MB-231 cells = assay: Calcium mobilization through endogenous LPA receptors in MDA MB-231 cells; assay type: cell-based; details: 1 μM
Method: (§6) wls-b8L and the other phosphonates were also tested also for activity in three whole cell assays. […] Finally, the activity of wls-b8L in activating a chloride conductance in Xenopus laevis ooctyes was measured.

[4] = test system: endogenous LPA receptor of Xenopus laevis oocytes; assay: Chloride conductance in Xenopus laevis oocytes, endogenous receptor; assay type: cell-based; details: uninjected oocytes
Method: as §6

LPA1 [5] = target: T6, LPA1; assay: cAMP accumulation in RH7777 cells stably expressing LPA1; assay type: cell-based; parameters: expressed in transfected cells; details: concentration of 1 μM
Method: Assays for cAMP accumulation were conducted on populations of 5×10^5 cells stimulated with […] in the presence of the phosphodiesterase inhibitor isomethylbutylxanthine (IBMX) for 15 minutes at 30° C. cAMP was measured by automated radioimmunoassay.
Rat hepatoma RH7777 cell monolayers were transfected with the mLPA1 plasmid DNA using the calcium phosphate precipitate method and clonal populations expressing the neomycin phosphotransferase gene were selected by addition of geneticin (G418) to the culture media. The RH7777 cells were grown in monolayers at 37° C. in a 5% CO02/95% air atmosphere in growth media consisting of: 90% MEM, 10% fetal bovine serum, 2 mM glutamine and 1 mM sodium pyruvate.
as §6

LPA3 [6] = target: T5, LPA3; assay: Chloride conductance in Xenopus oocytes injected with human LPA3 mRNA; assay type: cell-based; parameters: expressed in transfected cells; host or cells: Xenopus laevis oocytes injected with mRNA; details: 10 μM
Method: as §6

LPA2 [7] = target: T4, LPA2; assay: Chloride conductance in Xenopus oocytes injected with human LPA2 mRNA; assay type: cell-based; parameters: expressed in transfected cells; host or cells: Xenopus laevis oocytes injected with mRNA; details: 10 μM
Method: as §6

T6 sequence (P61793 whole entry): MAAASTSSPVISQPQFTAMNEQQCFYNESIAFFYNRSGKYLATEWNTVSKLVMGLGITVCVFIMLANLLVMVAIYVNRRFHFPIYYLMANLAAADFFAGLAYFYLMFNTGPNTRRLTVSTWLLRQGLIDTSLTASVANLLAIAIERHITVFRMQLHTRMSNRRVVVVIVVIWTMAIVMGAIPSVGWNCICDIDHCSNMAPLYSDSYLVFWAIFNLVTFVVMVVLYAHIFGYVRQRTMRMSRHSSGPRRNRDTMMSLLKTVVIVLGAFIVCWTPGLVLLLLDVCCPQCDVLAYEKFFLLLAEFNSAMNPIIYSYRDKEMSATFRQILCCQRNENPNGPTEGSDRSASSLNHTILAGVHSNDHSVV
T4 sequence (Q9HBW0 whole entry): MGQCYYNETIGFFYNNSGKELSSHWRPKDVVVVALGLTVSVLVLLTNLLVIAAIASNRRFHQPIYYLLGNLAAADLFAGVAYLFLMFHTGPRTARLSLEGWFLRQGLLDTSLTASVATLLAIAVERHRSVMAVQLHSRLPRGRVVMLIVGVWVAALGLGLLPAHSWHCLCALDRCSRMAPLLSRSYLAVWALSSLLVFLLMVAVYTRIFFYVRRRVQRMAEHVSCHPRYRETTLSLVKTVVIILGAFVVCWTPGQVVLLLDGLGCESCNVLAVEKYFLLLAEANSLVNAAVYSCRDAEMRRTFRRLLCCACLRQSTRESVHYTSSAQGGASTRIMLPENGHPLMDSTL

Inhibition of LPP1 (LPP1 (PAP2a) phosphatase)	Inhibition of LPP2 (LPP2 (PAP2c) phosphatase)	Inhibition of LPP3 (LPP3 (PAP2b) phosphatase; 0.1, 1.0 and 10.0 mM vs 50 nM [32P]LPA)	Rank order potency of LPP inhibition (LPP3 (PAP2b) phosphatase)	Activation of chloride conductance [4]	Inhibition of cAMP accumulation (agonist efficacy) (LPA1 [5])	Activation of chloride conductance (LPA3 [6])	Activation of chloride conductance (LPA2 [7])	Compound	Rank order potency of LPP inhibition (LPP3 (PAP2b) phosphatase; listed as VPC12031)	Agonist activity/efficacy at LPA2 (LPA2 [1]; compared to LPA)	Potency at LPA2 relative to LPA (LPA2 [1]; vs 1-oleoyl LPA)	Agonist activity/efficacy at LPA3 (LPA3 [2]; compared to LPA)	Potency at LPA3 relative to LPA (LPA3 [2]; vs 1-oleoyl LPA)	Agonist activity/efficacy at LPA1 (LPA1 [3]; compared to LPA)	Potency at LPA1 relative to LPA (LPA1 [3]; vs 1-oleoyl LPA)	Aggregation of human platelets (human platelets)	Calcium mobilization (MDA MB-231 cells)	Receptor-type selectivity of agonist activity (LPA1 vs LPA2, LPA3) (LPA1 [3]; GTPγ[35S] binding)
to a lesser extent	inactive	inhibited	LPP3>LPP1>>LPP2	–	–	–	–	CCCCCCCC/C=C\CCCCCCCC(=O)NCCC(O)P(=O)(O)O (racemic) [NOHPP, (9Z)-N-(rac-3-hydroxy-3-phosphonopropyl)Octadec-9-enamide]	markedly better at the PAP2b (LPP3) than PAP2a (LPP1)	as efficacious as; also recorded: fully efficacious	somewhat less potent; also recorded: about one log order less potent	far less efficacious; also recorded: little activity	distinctly less potent; also recorded: greater than two log orders less potent	as efficacious as; also recorded: fully efficacious	somewhat less potent; also recorded: about one log order less potent	–	–	–
–	–	–	–	does not evoke this response	fully efficacious	very modest response	very modest response	CCCCCCCC/C=C\CCCCCCCC(=O)NCCCP(=O)(O)O [wls-b8L, (9Z)-N-(3-phosphonopropyl)Octadec-9-enamide]	–	–	–	–	–	–	–	does not elicit aggregation	inactive	more potent and efficacious at LPA1 than at either LPA2 or LPA3; also recorded: distinctly more selective
